According to publication doi:10.1101/2021.09.28.462122v1 (biorxiv, 2021):

target: T1, AtGDH (Aspergillus terreus NADP+-specific glutamate dehydrogenase) (Aspergillus terreus, UniProt T2D1F5); test: NADPH oxidation at […] nm, reductive amination; format: biochemical
T1 sequence (T2D1F5 1-460): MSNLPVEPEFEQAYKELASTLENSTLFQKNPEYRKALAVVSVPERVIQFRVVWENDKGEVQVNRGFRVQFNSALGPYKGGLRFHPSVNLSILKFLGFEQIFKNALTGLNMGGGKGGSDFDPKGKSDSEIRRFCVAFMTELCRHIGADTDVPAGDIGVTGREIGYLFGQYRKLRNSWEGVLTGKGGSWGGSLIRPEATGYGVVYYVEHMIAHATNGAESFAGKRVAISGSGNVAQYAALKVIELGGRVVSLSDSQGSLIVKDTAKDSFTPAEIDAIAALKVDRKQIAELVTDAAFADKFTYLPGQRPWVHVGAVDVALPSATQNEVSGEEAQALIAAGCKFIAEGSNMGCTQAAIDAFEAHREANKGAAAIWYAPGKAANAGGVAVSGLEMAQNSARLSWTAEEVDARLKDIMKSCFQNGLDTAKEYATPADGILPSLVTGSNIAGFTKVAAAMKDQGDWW

Ki [mM]	Structure (SMILES)
39.1	O=C(O)CCC(=O)O [succinate]
50.8	O=C(O)C(O)C(O)C(=O)O (centres unmarked) [tartrate]

Continued, molecule first:

Structure (SMILES)	Ki [mM]
O=C(O)/C=C/C(=O)O [fumarate]	23.2
O=C(O)/C=C\C(=O)O [maleate]	36.2
O=C(O)CC(=O)O [malonate]	19.5
